From ChEMBL document CHEMBL5465560, “Selectivity Literature for EUbOPEN Chemogenomic Library” (2024)

Key:
[1] = target: T1, Serine/threonine-protein kinase RIO3 (Homo sapiens) (UniProt O14730); details: at 10 µM
T1 sequence (whole entry): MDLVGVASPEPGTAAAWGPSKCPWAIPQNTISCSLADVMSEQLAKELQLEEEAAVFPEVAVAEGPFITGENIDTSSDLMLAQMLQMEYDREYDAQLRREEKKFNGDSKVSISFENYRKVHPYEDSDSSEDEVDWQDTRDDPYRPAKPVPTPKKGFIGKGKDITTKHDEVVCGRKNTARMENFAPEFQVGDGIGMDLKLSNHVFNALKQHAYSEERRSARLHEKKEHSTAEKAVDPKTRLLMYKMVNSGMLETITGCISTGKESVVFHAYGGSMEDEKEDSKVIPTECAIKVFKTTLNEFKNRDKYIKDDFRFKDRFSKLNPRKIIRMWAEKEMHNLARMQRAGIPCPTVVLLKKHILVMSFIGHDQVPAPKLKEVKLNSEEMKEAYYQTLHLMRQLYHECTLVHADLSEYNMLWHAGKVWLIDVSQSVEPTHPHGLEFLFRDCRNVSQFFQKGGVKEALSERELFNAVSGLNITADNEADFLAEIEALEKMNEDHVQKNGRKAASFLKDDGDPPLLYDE

[2] = target: T2, Dual specificity mitogen-activated protein kinase kinase 6 (Homo sapiens) (UniProt P52564); assay: Selectivity interaction (KinomeScan (DiscoverX)) EUB0001049a MAP2K6; details: at 1 µM
T2 sequence (whole entry): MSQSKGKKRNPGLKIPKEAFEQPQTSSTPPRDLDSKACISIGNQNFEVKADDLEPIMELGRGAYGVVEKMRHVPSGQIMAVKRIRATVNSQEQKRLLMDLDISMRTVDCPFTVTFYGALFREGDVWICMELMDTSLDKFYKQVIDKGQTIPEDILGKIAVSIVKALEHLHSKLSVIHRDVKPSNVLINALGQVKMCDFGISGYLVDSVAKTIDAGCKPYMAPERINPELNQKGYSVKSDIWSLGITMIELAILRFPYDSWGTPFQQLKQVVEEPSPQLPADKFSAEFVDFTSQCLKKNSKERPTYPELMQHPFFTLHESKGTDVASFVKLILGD

[3] = target: Estrogen receptor (Homo sapiens, UniProt P03372); assay: Selectivity interaction (Estrogen alpha receptor binding assay, human recombinant ) EUB0000877a ESR1
Estrogen receptor, sequence (P03372 whole entry): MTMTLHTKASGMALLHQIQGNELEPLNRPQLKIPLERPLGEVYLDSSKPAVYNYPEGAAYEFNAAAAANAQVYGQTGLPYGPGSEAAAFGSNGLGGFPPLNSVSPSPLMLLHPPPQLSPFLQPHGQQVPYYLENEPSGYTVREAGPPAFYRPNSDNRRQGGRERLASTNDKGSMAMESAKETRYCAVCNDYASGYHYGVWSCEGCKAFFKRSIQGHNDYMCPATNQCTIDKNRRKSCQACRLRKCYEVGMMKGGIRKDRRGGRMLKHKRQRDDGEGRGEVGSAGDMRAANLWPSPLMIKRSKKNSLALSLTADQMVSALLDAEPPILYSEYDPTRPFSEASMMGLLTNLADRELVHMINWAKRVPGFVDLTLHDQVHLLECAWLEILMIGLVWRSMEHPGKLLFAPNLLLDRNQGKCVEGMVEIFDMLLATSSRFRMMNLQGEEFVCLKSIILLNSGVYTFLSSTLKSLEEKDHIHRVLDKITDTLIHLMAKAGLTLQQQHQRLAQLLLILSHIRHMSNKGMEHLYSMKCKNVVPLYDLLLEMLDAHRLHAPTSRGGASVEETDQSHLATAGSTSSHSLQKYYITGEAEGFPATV

[4] = target: T3, MAP kinase-activated protein kinase 5 (Homo sapiens) (UniProt Q8IW41); assay: Selectivity interaction (KinomeScan (DiscoverX)) EUB0001619a MAPKAPK5; details: at 1 µM
T3 sequence (whole entry): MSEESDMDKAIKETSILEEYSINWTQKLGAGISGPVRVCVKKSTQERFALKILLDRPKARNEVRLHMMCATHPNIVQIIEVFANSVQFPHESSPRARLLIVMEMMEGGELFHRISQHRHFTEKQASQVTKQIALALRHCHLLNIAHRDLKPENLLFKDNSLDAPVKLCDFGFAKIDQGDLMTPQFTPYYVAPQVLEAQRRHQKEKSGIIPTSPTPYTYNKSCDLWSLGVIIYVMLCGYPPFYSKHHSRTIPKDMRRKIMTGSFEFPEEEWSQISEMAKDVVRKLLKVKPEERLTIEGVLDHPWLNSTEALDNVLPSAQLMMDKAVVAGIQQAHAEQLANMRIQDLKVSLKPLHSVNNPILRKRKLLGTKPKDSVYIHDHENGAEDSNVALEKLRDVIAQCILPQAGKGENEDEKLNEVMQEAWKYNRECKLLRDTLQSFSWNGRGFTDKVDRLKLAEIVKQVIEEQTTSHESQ

[5] = target: Serine/threonine-protein kinase tousled-like 2 (Homo sapiens) (UniProt Q86UE8); assay: Selectivity interaction (ActivX KiNativ screen (kinase selectivity in THP-1 cell lysates)) EUB0000639a TLK2; type: subcellular; details: lysate, at 0.04 µM
Serine/threonine-protein kinase tousled-like 2 (Homo sapiens), sequence (Q86UE8 whole entry, looked up): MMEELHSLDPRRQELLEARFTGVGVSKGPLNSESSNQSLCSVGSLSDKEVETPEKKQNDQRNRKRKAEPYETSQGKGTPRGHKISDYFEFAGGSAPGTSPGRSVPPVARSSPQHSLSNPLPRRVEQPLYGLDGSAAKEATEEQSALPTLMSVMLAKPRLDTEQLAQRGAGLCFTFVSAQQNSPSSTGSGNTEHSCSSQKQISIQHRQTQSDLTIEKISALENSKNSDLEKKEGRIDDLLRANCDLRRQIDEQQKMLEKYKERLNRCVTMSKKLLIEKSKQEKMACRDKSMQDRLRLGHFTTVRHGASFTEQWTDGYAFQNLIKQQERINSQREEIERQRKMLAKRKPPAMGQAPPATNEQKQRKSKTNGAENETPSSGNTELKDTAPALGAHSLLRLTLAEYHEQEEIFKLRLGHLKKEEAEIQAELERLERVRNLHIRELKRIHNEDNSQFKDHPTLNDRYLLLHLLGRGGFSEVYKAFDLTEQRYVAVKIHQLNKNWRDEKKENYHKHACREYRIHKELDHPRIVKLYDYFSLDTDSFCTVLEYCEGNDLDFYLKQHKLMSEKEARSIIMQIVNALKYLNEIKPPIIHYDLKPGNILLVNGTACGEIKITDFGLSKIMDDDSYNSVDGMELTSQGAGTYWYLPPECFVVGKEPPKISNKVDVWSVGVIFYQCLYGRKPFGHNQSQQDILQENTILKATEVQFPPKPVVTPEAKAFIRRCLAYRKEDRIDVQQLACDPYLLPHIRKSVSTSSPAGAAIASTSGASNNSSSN

[6] = target: T4, Mitogen-activated protein kinase kinase kinase 5 (Homo sapiens) (UniProt Q99683); assay: Selectivity interaction (ActivX KiNativ screen (kinase selectivity in THP-1 cell lysates)) EUB0000639a MAP3K5; type: subcellular; details: lysate, at 1 µM
T4 sequence (whole entry): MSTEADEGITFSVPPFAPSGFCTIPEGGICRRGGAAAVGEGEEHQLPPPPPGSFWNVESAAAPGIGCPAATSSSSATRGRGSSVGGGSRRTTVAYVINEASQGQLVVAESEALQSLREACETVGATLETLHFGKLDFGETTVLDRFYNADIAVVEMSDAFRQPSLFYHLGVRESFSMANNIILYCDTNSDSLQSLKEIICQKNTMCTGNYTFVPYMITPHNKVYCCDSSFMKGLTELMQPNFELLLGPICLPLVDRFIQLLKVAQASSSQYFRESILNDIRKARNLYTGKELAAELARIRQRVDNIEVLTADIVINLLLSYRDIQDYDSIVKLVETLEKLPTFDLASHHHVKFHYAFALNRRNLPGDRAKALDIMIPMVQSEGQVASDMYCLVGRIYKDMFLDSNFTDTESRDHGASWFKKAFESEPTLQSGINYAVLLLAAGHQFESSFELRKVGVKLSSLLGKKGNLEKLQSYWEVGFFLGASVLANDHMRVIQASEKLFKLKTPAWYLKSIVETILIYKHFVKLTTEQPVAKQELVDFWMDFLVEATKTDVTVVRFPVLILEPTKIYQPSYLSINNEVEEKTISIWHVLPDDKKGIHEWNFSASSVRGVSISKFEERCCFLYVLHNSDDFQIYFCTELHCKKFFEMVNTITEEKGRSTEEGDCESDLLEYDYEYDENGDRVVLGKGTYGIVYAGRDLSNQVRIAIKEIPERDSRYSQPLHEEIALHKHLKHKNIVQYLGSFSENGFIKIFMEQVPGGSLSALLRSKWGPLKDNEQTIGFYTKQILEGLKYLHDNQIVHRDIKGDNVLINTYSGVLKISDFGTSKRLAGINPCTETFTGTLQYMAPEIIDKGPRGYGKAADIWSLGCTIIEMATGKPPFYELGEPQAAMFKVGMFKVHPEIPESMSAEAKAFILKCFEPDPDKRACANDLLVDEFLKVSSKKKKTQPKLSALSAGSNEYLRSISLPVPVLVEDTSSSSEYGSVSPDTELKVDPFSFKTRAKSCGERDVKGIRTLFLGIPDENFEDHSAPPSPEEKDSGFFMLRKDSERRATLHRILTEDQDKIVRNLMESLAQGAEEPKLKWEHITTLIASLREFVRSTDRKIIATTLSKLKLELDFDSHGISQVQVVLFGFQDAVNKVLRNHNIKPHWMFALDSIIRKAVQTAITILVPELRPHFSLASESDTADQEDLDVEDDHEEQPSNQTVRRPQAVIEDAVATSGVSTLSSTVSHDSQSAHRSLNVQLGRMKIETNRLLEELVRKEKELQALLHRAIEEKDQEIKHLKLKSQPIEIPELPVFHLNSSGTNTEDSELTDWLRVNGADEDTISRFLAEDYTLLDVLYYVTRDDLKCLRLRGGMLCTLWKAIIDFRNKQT

Cc1cc([C@@H](C)Nc2ccccc2C(=O)O)c2nc(N3CCOCC3)cc(=O)n2c1 [AZD-6482]
% of control [1]: 100%

COc1cc(Nc2nc(C)cc(-c3cnn4nc(OC)ccc34)n2)cc(C(F)(F)F)c1
% of control [2]: 100%

CCC(=O)N1CC[C@H](Nc2ncnc3c2CN(c2cnc(OC)c(C(F)(F)F)c2)CC3)C1 [LENIOLISIB]
IC50 [3]: > 30 µM

N#Cc1cccc(-c2c[nH]c3ncnc(N4CCOCC4)c23)c1
% of control [4]: 100%

CC[C@@H]1[C@H](F)C(=O)N[C@@H]1COc1nccc2cc(C(N)=O)c(OC)cc12 [ZIMLOVISERTIB]
% of inhibition [5]: 9.2% | % of inhibition [6]: -29.6%
